Where “and” joins values, the source holds several entries; their conditions need not be identical. Identical values can stand only once. Entries after “also recorded” stand apart in the source; their conditions may differ. Like-named read-outs stand apart in the source and are kept apart here.
Tests used:
BGC-823 = assay: MTT cytotoxicity, gastric carcinoma cells; type: cell-based; conditions: Homo sapiens; MTT assay, gastric carcinoma BGC-823, mean ± SD of at least three determinations
Procedure: (§1) Target compounds were assayed by the MTT method for cytotoxic activity, as described previously. The panel of cell lines included gastric carcinoma (BGC-823), liver carcinoma (HepG2), breast carcinoma (MCF-7), colon carcinoma (HT-29), esophageal carcinoma (Eca-109), and Lewis lung carcinoma (LLC). Growth inhibition rates were calculated with the following equitation: Inhibition ratio (%)= ODcompd−ODblank/ODDMSO−ODblank×100% . Half maximal inhibitory concentration (IC50) of each compound was calculated using software Graph-Pad Prism (version 6.0).
(§2) All the 24 novel synthesized N^9-heterobivalent β-carbolines (5a-x) were screened for their in vitro cytotoxic activities against six different cancer cell lines, namely BGC-823 (gastric carcinoma), HepG2 (liver carcinoma), MCF-7 (breast carcinoma), HT-29 (colon carcinoma), Eca-109 (esophageal carcinoma) and LLC (Lewis lung carcinoma). The IC50 values were the average of at least three independent experiments.

LLC = assay: MTT cytotoxicity, Lewis lung carcinoma cells; type: cell-based; conditions: Lewis lung carcinoma, MTT assay, mean ± SD of at least three determinations
Procedure: as §1, §2

HT-29 = assay: MTT cytotoxicity, colon carcinoma cells; type: cell-based; conditions: Homo sapiens; MTT assay, colon carcinoma HT-29, mean ± SD of at least three determinations
Procedure: as §1, §2

Eca-109 = assay: MTT cytotoxicity, esophageal carcinoma cells; type: cell-based; conditions: Homo sapiens, ECa-109, MTT assay, esophageal carcinoma Eca-109, mean ± SD of at least three determinations
Procedure: as §1, §2

KM mice [1] = assay: Acute toxicity in mice (i.p.); type: in vivo; conditions: for Acute toxicity Neurotoxic effect: KM mice, intraperitoneal; for Acute toxicity LD50: both, KM, mouse, in vivo, ip, 14 days
Procedure: Specific pathogen-free KM mice (6–8 weeks old) weighing 19–22 g were housed in a mouse room at 24 ± 2 °C and 60–70% humidity with 12 h light/dark cycles. The mice were provided rodent laboratory chow pellets and tap water for a week to adapt to the environment of the mouse room. The experimental protocol was approved by the Institutional Animal Ethical Committee, and all of the animals were provided by Laboratory Animal Center of Xinjiang Uygur Autonomous Region. Prior to each experiment, mice were fastened overnight and allowed free access to water. Various doses of the asymmetric dimeric β-carboline derivatives, ranging from 5.0 to 500 mg kg^−1 dissolved in 0.5% carboxymethyl cellulose sodium (CMC-Na) salt solution, were given intraperitoneally to different groups of healthy KM mice, and each group contained 10 mice (5 males and 5 females). After the administration of the compounds, the mice were observed continuously for the first 2 h for any gross behavioral changes and deaths, then intermittently for the next 24 h, and occasionally thereafter for 14 days, and for the onset of any delayed effects. All of the animals were killed on the 14th day after drug administration, and they were checked macroscopically for possible damage to the heart, liver, and kidneys. Mice that experienced immediate death following drug administration were also examined for any possible organ damage. LD50 values were calculated graphically as described.
The LD50 values of the selected N^9-heterobivalent β-carbolines in mice after intraperitoneal (i.p.) administration are shown in Table 2. […] Death occurred mostly in the high dosage group within 4–8 h after injection. All of the surviving animals returned to normal within the next day.

[2] = test system: six tumor cell lines (BGC-823, HepG2, MCF-7, HT-29, Eca-109, LLC); assay: MTT cytotoxicity, panel of six tumour cell lines (summary statements); type: cell-based; conditions: MTT assay, statement over all cell lines tested; read-out: IC50 against the tested six tumor cell lines
Procedure: as §1, §2

HepG2 = assay: MTT cytotoxicity, liver carcinoma cells; type: cell-based; conditions: Homo sapiens; MTT assay, liver carcinoma HepG2, mean ± SD of at least three determinations
Procedure: as §1, §2

MCF-7 = assay: MTT cytotoxicity, breast carcinoma cells; type: cell-based; conditions: Homo sapiens, MCF7; MTT assay, breast carcinoma MCF-7, mean ± SD of at least three determinations
Procedure: as §1, §2

angiogenesis of CAM = assay: Chicken chorioallantoic membrane (CAM) angiogenesis assay; type: in vivo; conditions: gelatin sponge discs 0.5, 5.0 and 50 µM/disc, 48 h, blood vessels counted
Procedure: Anti-angiogenic activity of the selected compounds 5b and 5w were investigated in vivo using a CAM assay. Five-day-old fertilized eggs were obtained from a local hatchery. We injected 5 ml of albumin, and the eggs were incubated horizontally to allow the CAM to detach from the shell to produce a sham chamber. Compounds 5b and 5w were prepared in gelatin sponge discs (5 × 5 × 5 mm^3) at the concentration of 0.5, 5.0, and 50 µM/disc, respectively. CA4P was used as the positive control drug. Discs containing the vehicle only (DMSO) were used as the negative control. A small window opening was made in the shell, and the discs were directly applied onto the CAM. The square opening was covered with sterilized surgical tape and the embryos were incubated for 48 h at 38.5 °C. The CAMs were photographed under a dissecting microscope and blood vessels in each CAM were counted. The results are presented as a mean percentage of inhibition to the control ± SD, (n = 3).
The anti-angiogenetic activity of compounds 5b and 5w were semi-quantitatively analyzed using Graph Pad Prism 5.0 (shown in Figure 2(B)).

Sarcoma 180 [3] = assay: In vivo antitumor activity, Sarcoma 180-bearing mice; conditions: i.p. once a day for seven days at the dosage of Table 2 (about one-fifth of LD50; CTX 30 mg kg^−1), tumour weight day 21, mean ± SD
Procedure: (§3) Sarcoma180 and Lewis lung cancer cell lines were provided by Shanghai Institute of Pharmaceutical Industry. Mice were inoculated with Sarcoma180 and Lewis lung cancer tumour cells. After 7 days, the tumours were removed and the cells were harvested. Mice received subcutaneous injections of viable tumour cells (2 × 10^6 cells/mouse) in the armpit. […] CTX at 30 mg kg^−1 was used as the positive control and the vehicle as the negative control. The weight of the animals was recorded every three days. All of the animals were killed on the 21st day after tumour inoculation, and the tumours were excised and weighed. The inhibition rate was calculated as follows: (C−T)/C×100 where T is the average tumor weight of the treated group and C is the average tumor weight of the negative control group.

KM mice [4] = conditions: mouse, in vivo; cited from earlier work
Sarcoma 180 [5] = test system: Sarcoma 180; parameters: method as in PMID 12620075; conditions: mice, dosage 40 mg kg^−1; cited from earlier work
Lewis lung cancer [6] = test system: Lewis lung cancer; parameters: method as in PMID 12620075; conditions: mice, dosage 40 mg kg^−1; cited from earlier work
Lewis lung cancer [7] = assay: In vivo antitumor activity, Lewis lung cancer-bearing mice; conditions: i.p. once a day for seven days at the dosage of Table 2 (about one-fifth of LD50; CTX 30 mg kg^−1), tumour weight day 21, mean ± SD
Procedure: as §3

Structure (SMILES)	IC50 (BGC-823) [µM]	IC50 (LLC) [µM]	IC50 (HT-29) [µM]	IC50 (Eca-109) [µM]	Acute toxicity Neurotoxic effect (KM mice [1])	Acute toxicity LD50 (KM mice [1]) [mg/kg]	IC50 [2] [µM]	IC50 (HepG2) [µM]	IC50 (MCF-7) [µM]	Anti-angiogenic effect in CAM assay (in words) (angiogenesis of CAM)	Tumor inhibition rate (%) Sarcoma 180 (Sarcoma 180 [3])	Acute toxicity LD50 (KM mice [4]) [mg/kg]	Tumor inhibition rate (%) Sarcoma 180 (Sarcoma 180 [5]) [%]	Tumor inhibition rate (%) Lewis lung cancer (Lewis lung cancer [6]) [%]	melting point [°C]	Tumor inhibition rate (%) Lewis lung cancer (Lewis lung cancer [7]) [%]
COc1ccc2c3ccnc(C)c3n(CCCCn3c4ccccc4c4ccnc(-c5cccs5)c43)c2c1 [Compound 5w, 7-methoxy-1-methyl-9–(4-(1–(2-thienyl)-β-carboline-9-yl)butyl)-β-carboline]	16.5 ± 1.9	13.1 ± 2.4	13.1 ± 3.5	15.4 ± 1.9	+	50	< 20	15.4 ± 2.7	14.1 ± 1.4	inhibited angiogenesis	–	–	–	–	–	–
Cc1nccc2c3ccccc3n(CCCCCn3c4ccccc4c4ccnc(-c5cccnc5)c43)c12 [Compound 5c, 1–(3-pyridyl)-9–(5-(1-methyl-β-carboline-9-yl)pentyl)-β-carboline]	22.6 ± 1.9	5.7 ± 1.2	13.3 ± 2.4	25.3 ± 3.2	–	175	–	10.5 ± 2.1	15.3 ± 2.6	–	33.6% and 33.6 ± 9.2%	–	–	–	–	–
COc1ccc2c3ccnc(C)c3n(CCCCCn3c4ccccc4c4ccnc(C)c43)c2c1 [Compound 5t, 7-methoxy-1-methyl-9–(5-(1-methyl-β-carboline-9-yl)pentyl)-β-carboline]	42.7 ± 2.9	3.1 ± 0.4	4.5 ± 0.6	51.9 ± 7.4	+	35	–	31.6 ± 2.2	17.6 ± 3.4	–	37.2% and 37.2 ± 4.4%	–	–	–	–	–
Cc1nccc2c3ccccc3n(CCCCn3c4ccccc4c4ccnc(C)c43)c12 [Compound B-9-3, 1-Methyl-9-[4–(1-methyl-β-carboline-9-yl)butyl]-β-carboline, reference compound]	22.3 ± 2.9	6.1 ± 0.9	40.6 ± 5.8	14.5 ± 2.2	–	–	–	> 100	13.2 ± 1.5	–	–	200	56.2	40.4	–	–
Cc1nccc2c3ccccc3n(CCCCn3c4ccccc4c4ccnc(-c5ccccc5Cl)c43)c12 [Compound 5i, 1–(2-chlorophenyl)-9–(4-(1-methyl-β-carboline-9-yl)butyl)-β-carboline]	37.9 ± 4.2	44.7 ± 3.6	28.3 ± 1.6	23.4 ± 4.1	–	–	18.8 to 97.6	23.9 ± 3.7	95.5 ± 14.8	–	–	–	–	–	232 to 232.8	–
O=P1(N(CCCl)CCCl)NCCCO1 (centres unmarked) [CTX, Cyclophosphamide, reference compound]	–	–	–	–	–	–	–	–	–	–	82.5 ± 3.4%	–	–	–	–	80.7 ± 2.1
Cc1nccc2c3ccccc3n(CCCCCn3c4ccccc4c4ccnc(-c5cccs5)c43)c12 [Compound 5g, 1–(2-thienyl)-9–(5-(1-methyl-β-carboline-9-yl)pentyl)-β-carboline]	97.6 ± 12.4	22.7 ± 1.4	32.3 ± 5.3	30.8 ± 3.2	–	–	18.8 to 97.6	18.8 ± 2.3	75.5 ± 10.7	–	–	–	–	–	158.4 to 159.2	–
Cc1nccc2c3ccccc3n(CCCCn3c4ccccc4c4ccnc(-c5cccnc5)c43)c12 [Compound 5b, 1–(3-pyridyl)-9–(4-(1-methyl-β-carboline-9-yl)butyl)-β-carboline]	12.1 ± 2.3	12.4 ± 2.1	12.6 ± 1.2	10.5 ± 1.3	–^b	150	< 20	15.9 ± 1.4	8.4 ± 1.7	could inhibit the angiogenesis of CAM; also recorded: inhibited angiogenesis	–	–	–	–	–	–
COc1ccc2c3ccnc(C)c3n(CCCCCn3c4ccccc4c4ccnc(-c5cccs5)c43)c2c1 [Compound 5x, 7-methoxy-1-methyl-9–(5-(1–(2-thienyl)-β-carboline-9-yl)pentyl)-β-carboline]	> 100	12.2 ± 3.7	> 100	46.7 ± 6.9	–	–	–	> 100	41.6 ± 5.3	–	–	–	–	–	196.1 to 197.4	–
